Measured values taken from patent US10617680B2 (CELGENE QUANTICEL RESEARCH, INC., priority 2017, dated 2020).

The compounds below were run against CBP (Homo sapiens (Human), UniProt Q92793) (assay: In vitro CBP inhibition (AlphaScreen, biotinylated H4-tetraacetyl peptide)). Details: AlphaScreen, Table 29; read-out: CBP IC50.
Sequence of CBP (Q92793 1081-1197): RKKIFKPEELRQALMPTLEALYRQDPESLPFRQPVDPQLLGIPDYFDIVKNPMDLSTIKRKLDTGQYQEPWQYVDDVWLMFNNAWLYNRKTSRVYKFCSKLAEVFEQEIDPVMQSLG
Assay type: binding
Method in brief: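 His-tagged CBP expressed in E. coli (50 nM final) incubated with biotinylated H4K5/8/12/16(Ac) peptide (20 nM final) in 50 mM HEPES pH 7.3, 10 mM NaCl, 0.25 mM TCEP, 0.1% BSA, 0.005% Brij-35, 0.4% DMSO, 20 min at room temp.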
In the case of `Cn1ccc(-c2cc(=O)n(C)cc2-c2cnn(-c3ccccc3C#N)c2)cc1=O` [Example 221, 2-[4-(1,1′-Dimethyl-6,2′-dioxo-1,6,1′,2′-tetrahydro-[4,4′]bipyridinyl-3-yl)-pyrazol-1-yl]-benzonitrile], the IC50 is reported as under 500 nM. In the case of `Cn1cc(-c2cnn(-c3cccc(Cl)c3C#N)c2)c(-c2ccc(OCC3CC3)nc2)cc1=O` [Example 357, 2-chloro-6-[4-[4-[6-(cyclopropylmethoxy)-3-pyridyl]-1-methyl-6-oxo-3-pyridyl]pyrazol-1-yl]benzonitrile], the IC50 is reported as under 500 nM. With `Cn1cc(-c2cnn(-c3cccc(Cl)c3C#N)c2)c(-c2cnc(NC3CC3)nc2)cc1=O` [Example 322, 2-chloro-6-[4-[4-[2-(cyclopropylamino)pyrimidin-5-yl]-1-methyl-6-oxo-3-pyridyl]pyrazol-1-yl]benzonitrile] the IC50 was under 500 nM. Compound `COc1ccc(C(=O)O)c(-n2cc(-c3cn(C)c(=O)cc3-c3ccc(F)cc3)cn2)c1` [Example 269, 2-{4-[4-(4-Fluoro-phenyl)-1-methyl-6-oxo-1,6-dihydro-pyridin-3-yl]-pyrazol-1-yl}-4-methoxy-benzoic acid] has an IC50 of under 500 nM. Compound `Cn1cc(-c2cnn(C3CCCCC3O)c2)c(-c2ccccc2)cc1=O` (stereo not shown) [Example 321, 5-(1-(2-hydroxycyclohexyl)-1H-pyrazol-4-yl)-1-methyl-4-phenylpyridin-2(1H)-one] has an IC50 of under 500 nM. Compound `CC(C)COc1ccc(-c2cc(=O)n(C)cc2-c2cnn(-c3ccccc3C#N)c2)cn1` [Example 236, 2-[4-(6-Isobutoxy-1′-methyl-6′-oxo-1′,6′-dihydro-[3,4′]bipyridinyl-3′-yl)-pyrazol-1-yl]-benzonitrile] has an IC50 of under 500 nM. With `COc1ccc(C#N)c(-n2cc(-c3cn(C)c(=O)cc3-c3ccc(F)cc3)cn2)c1` [Example 263, 2-{4-[4-(4-Fluoro-phenyl)-1-methyl-6-oxo-1,6-dihydro-pyridin-3-yl]-pyrazol-1-yl}-4-methoxy-benzonitrile] the IC50 was under 500 nM. Compound `Cc1ccc(-c2cc(=O)n(C)cc2-c2cnn(-c3cccc(Cl)c3C#N)c2)cn1` [Example 369, 2-chloro-6-(4-(1′,6-dimethyl-6′-oxo-1′,6′-dihydro-[3,4′-bipyridin]-3′-yl)-1H-pyrazol-1-yl)benzonitrile] has an IC50 of under 500 nM. With `CCS(=O)(=O)NC(=O)c1ccccc1-n1cc(-c2cn(C)c(=O)cc2C2CC2)cn1` [Example 303, Ethanesulfonic acid 2-[4-(4-cyclopropyl-1-methyl-6-oxo-1,6-dihydro-pyridin-3-yl)-pyrazol-1-yl]-benzoylamide] the IC50 was under 500 nM. `CC(C)n1cc(-c2cn(C)c(=O)cc2-c2ccccc2)cn1` [Example 138, 5-(1-isopropyl-1H-pyrazol-4-yl)-1-methyl-4-phenylpyridin-2(1H)-one] gave an IC50 of under 500 nM. `COc1ccc(C#N)c(-n2cc(-c3cn(C)c(=O)cc3-c3ccc(=O)[nH]c3)cn2)c1` [Example 260, 4-Methoxy-2-[4-(1′-methyl-6,6′-dioxo-1,6,1′,6′-tetrahydro-[3,4′]bipyridinyl-3′-yl)-pyrazol-1-yl]-benzonitrile] gave an IC50 of under 500 nM. `Cn1ccc(-c2cc(=O)n(C)cc2-c2cnn(-c3cccc(Cl)c3C#N)c2)cc1=O` [Example 276, 2-Chloro-6-[4-(1,1′-dimethyl-6,2′-dioxo-1,6,1,′,2′-tetrahydro-[4,4′]bipyridinyl-3-yl)-pyrazol-1-yl]-benzonitrile] was tested, and the IC50 was under 500 nM. With `CCOc1ccc(-c2cc(=O)n(C)cc2-c2cnn(-c3cccc(C4CC4)c3C#N)c2)cn1` [Example 384, 2-cyclopropyl-6-(4-(6-ethoxy-1′-methyl-6′-oxo-1′,6′-dihydro-[3,4′-bipyridin]-3′-yl)-1H-pyrazol-1-yl)benzonitrile] the IC50 was under 500 nM. `Cn1cc(-c2cnn(Cc3ccccc3)c2)c(-c2cnn(CC#N)c2)cc1=O` [Example 163, 2-(4-(5-(1-benzyl-1H-pyrazol-4-yl)-1-methyl-2-oxo-1,2-dihydropyridin-4-yl)-1H-pyrazol-1-yl)acetonitrile] showed an IC50 of under 500 nM. In the case of `Cn1cc(-c2cnn(-c3cccc(C4CC4)c3C#N)c2)c(-c2ccn(CC3CC3)c(=O)c2)cc1=O` [Example 381, 2-cyclopropyl-6-[4-[4-[1-(cyclopropylmethyl)-2-oxo-4-pyridyl]-1-methyl-6-oxo-3-pyridyl]pyrazol-1-yl]benzonitrile], the IC50 is reported as under 500 nM. `COc1ccc(-c2cc(=O)n(C)cc2-c2cnn(CC3CC3(F)F)c2)cc1` (stereo not shown) [Example 191, 5-[1-(2,2-Difluoro-cyclopropylmethyl)-1H-pyrazol-4-yl]-4-(4-methoxy-phenyl)-1-methyl-1H-pyridin-2-one] was tested, and the IC50 was under 500 nM. With `C[C@H](c1ccccc1)n1cc(-c2cn(C)c(=O)cc2-n2cccn2)cn1` [Example 61, (R)-1-methyl-5-(1-(1-phenylethyl)-1H-pyrazol-4-yl)-4-(1H-pyrazol-1-yl)pyridin-2(1H)-one] the IC50 was under 500 nM. For `Cn1cc(-c2cnn(Cc3ccccc3)c2)c(OCCC(F)(F)F)cc1=O` [Example 92, 5-(1-benzyl-1H-pyrazol-4-yl)-1-methyl-4-(3,3,3-trifluoro-propoxy)pyridin-2(1H)-one], the IC50 was under 500 nM. `Cn1cc(-c2cn(C)c(=O)cc2-n2ccc(C(=O)O)c2)cn1` [Example 84, 1-(1-methyl-5-(1-methyl-1H-pyrazol-4-yl)-2-oxo-1,2-dihydro-pyridin-4-yl)-1H-pyrrole-3-carboxylic acid] showed an IC50 of under 500 nM. With `CN(C)c1ccc(-c2cc(=O)n(C)cc2-c2cnn(-c3cccc(Cl)c3C#N)c2)cn1` [Example 345, 2-chloro-6-{4-[6-(dimethylamino)-1′-methyl-6′-oxo-1′,6′-dihydro-[3,4′-bipyridine]-3′-yl]-1H-pyrazol-1-yl}benzonitrile] the IC50 was under 500 nM. Compound `CNc1ncc(-c2cc(=O)n(C)cc2-c2cnn(C(C)c3ccccc3)c2)cn1` (stereo not shown) [Example 309, 1-methyl-4-(2-(methylamino)pyrimidin-5-yl)-5-(1-(1-phenylethyl)-1H-pyrazol-4-yl)pyridin-2(1H)-one] has an IC50 of under 500 nM. `Cn1cc(-c2cnn(-c3ccccc3)c2)c(-c2ccccc2)cc1=O` [Example 128, 1-methyl-4-phenyl-5-(1-phenyl-1H-pyrazol-4-yl) pyridin-2(1H)-one] showed an IC50 of under 500 nM. `CC(c1cccc(C#N)c1)n1cc(-c2ccc(=O)n(C)c2)cn1` (stereo not shown) [Example 16, 3-(1-(4-(1-methyl-6-oxo-1,6-dihydropyridin-3-yl)-1H-pyrazol-1-yl)ethyl)benzonitrile] gave an IC50 of 500 to 5000 nM. `Cn1cc(-c2cnn(-c3cccc(F)c3C#N)c2)c(-c2ccc(Cl)cc2)cc1=O` [Example 275, 2-{4-[4-(4-Chloro-phenyl)-1-methyl-6-oxo-1,6-dihydro-pyridin-3-yl]-pyrazol-1-yl}-6-fluoro-benzonitrile] gave an IC50 of under 500 nM. `CC(C)c1ccc(-c2cc(=O)n(C)cc2-c2cnn(-c3cccc(F)c3C#N)c2)cn1` [Example 375, 2-fluoro-6-[4-[4-(6-isopropyl-3-pyridyl)-1-methyl-6-oxo-3-pyridyl]pyrazol-1-yl]benzonitrile] showed an IC50 of under 500 nM. For `Cn1cc(-c2cc(=O)n(C)cc2-c2cnn(Cc3ccccc3)c2)cn1` [Example 108, 5-(1-benzyl-1H-pyrazol-4-yl)-1-methyl-4-(1-methyl-1H-pyrazol-4-yl)pyridin-2(1H)-one], the IC50 was under 500 nM. With `Cn1cc(-c2cnn(Cc3ccccc3)c2)c(-c2cccs2)cc1=O` [Example 116, 5-(1-benzyl-1H-pyrazol-4-yl)-1-methyl-4-(thiophen-2-yl) pyridin-2(1H)-one] the IC50 was under 500 nM. `Cn1cc(-c2cnn(-c3cccc(Cl)c3C#N)c2)c(-c2ccc(OC(F)F)nc2)cc1=O` [Example 354, 2-chloro-6-(4-(6-(difluoromethoxy)-1′-methyl-6′-oxo-1′,6′-dihydro-[3,4′-bipyridin]-3′-yl)-1H-pyrazol-1-yl)benzonitrile] was tested, and the IC50 was under 500 nM. `Cc1ccc(-c2cc(=O)n(C)cc2-c2cnn(-c3cccc(F)c3C#N)c2)cn1` [Example 367, 2-(4-(1′,6-dimethyl-6′-oxo-1′,6′-dihydro-[3,4′-bipyridin]-3′-yl)-1H-pyrazol-1-yl)-6-fluorobenzonitrile] showed an IC50 of under 500 nM. `COc1ccc(-c2cc(=O)n(C)cc2-c2cnn(Cc3ccccc3)c2)cc1` [Example 120, 5-(1-benzyl-1H-pyrazol-4-yl)-4-(4-methoxyphenyl)-1-methyl-pyridin-2(1H)-one] was tested, and the IC50 was under 500 nM. In the case of `COc1ccc(C#N)c(-n2cc(-c3cn(C)c(=O)cc3-c3ccc(OC)nc3)cn2)c1` [Example 264, 4-Methoxy-2-[4-(6-methoxy-1′-methyl-6′-oxo-1′,6′-dihydro-[3,4′]bipyridinyl-3′-yl)-pyrazol-1-yl]-benzonitrile], the IC50 is reported as under 500 nM. In the case of `Cn1cc(-c2cnn(Cc3ccccc3)c2)c(-c2cccnc2)cc1=O` [Example 122, 5′-(1-benzyl-1H-pyrazol-4-yl)-1′-methyl-[3,4-bipyridin]-2′(1′H)-one], the IC50 is reported as under 500 nM. Compound `Cc1cc(-c2cnn(-c3cc(Oc4ccccc4)ccc3C(=O)O)c2)cn(C)c1=O` [Example 259, 2-[4-(1,5-Dimethyl-6-oxo-1,6-dihydro-pyridin-3-yl)-pyrazol-1-yl]-4-phenoxy-benzoic acid] has an IC50 of over 5000 nM. `Cn1cc(-c2cnn(Cc3ccccc3)c2)c(OCC(F)(F)F)cc1=O` [Example 91, 5-(1-benzyl-1H-pyrazol-4-yl)-1-methyl-4-(2,2,2-trifluoro-ethoxy)pyridin-2(1H)-one] showed an IC50 of under 500 nM. For `Cn1cc(-c2cnn(Cc3ccccc3)c2)c(-c2cn[nH]c2)cc1=O` [Example 152, 5-(1-benzyl-1H-pyrazol-4-yl)-1-methyl-4-(1H-pyrazol-4-yl) pyridin-2(1H)-one], the IC50 was under 500 nM. For `COc1ccc(C(=O)O)c(-n2cc(-c3cn(C)c(=O)cc3-c3ccc(OC)nc3)cn2)c1` [Example 270, 4-Methoxy-2-[4-(6-methoxy-1′-methyl-6′-oxo-1′,6′-dihydro-[3,4′]bipyridinyl-3∝-yl)-pyrazol-1-yl]-benzoic acid], the IC50 was under 500 nM. `COC(=O)c1ccn(-c2cc(=O)n(C)cc2-c2cnn(Cc3ccccc3)c2)c1` [Example 77, methyl 1-(5-(1-benzyl-1H-pyrazol-4-yl)-1-methyl-2-oxo-1,2-dihydro-pyridin-4-yl)-1H-pyrrole-3-carboxylate] was tested, and the IC50 was under 500 nM.
